Experimental findings from patent US10934274B2, “Quinoline derivatives as TAM RTK inhibitors” (Qurient Co., Ltd., priority 2015, dated 2021) are described below.

In assay [1] the target is T1, Mer (Homo sapiens, UniProt Q12866).
T1 construct: purchased Life Technologies
T1 sequence (Q12866 21-999): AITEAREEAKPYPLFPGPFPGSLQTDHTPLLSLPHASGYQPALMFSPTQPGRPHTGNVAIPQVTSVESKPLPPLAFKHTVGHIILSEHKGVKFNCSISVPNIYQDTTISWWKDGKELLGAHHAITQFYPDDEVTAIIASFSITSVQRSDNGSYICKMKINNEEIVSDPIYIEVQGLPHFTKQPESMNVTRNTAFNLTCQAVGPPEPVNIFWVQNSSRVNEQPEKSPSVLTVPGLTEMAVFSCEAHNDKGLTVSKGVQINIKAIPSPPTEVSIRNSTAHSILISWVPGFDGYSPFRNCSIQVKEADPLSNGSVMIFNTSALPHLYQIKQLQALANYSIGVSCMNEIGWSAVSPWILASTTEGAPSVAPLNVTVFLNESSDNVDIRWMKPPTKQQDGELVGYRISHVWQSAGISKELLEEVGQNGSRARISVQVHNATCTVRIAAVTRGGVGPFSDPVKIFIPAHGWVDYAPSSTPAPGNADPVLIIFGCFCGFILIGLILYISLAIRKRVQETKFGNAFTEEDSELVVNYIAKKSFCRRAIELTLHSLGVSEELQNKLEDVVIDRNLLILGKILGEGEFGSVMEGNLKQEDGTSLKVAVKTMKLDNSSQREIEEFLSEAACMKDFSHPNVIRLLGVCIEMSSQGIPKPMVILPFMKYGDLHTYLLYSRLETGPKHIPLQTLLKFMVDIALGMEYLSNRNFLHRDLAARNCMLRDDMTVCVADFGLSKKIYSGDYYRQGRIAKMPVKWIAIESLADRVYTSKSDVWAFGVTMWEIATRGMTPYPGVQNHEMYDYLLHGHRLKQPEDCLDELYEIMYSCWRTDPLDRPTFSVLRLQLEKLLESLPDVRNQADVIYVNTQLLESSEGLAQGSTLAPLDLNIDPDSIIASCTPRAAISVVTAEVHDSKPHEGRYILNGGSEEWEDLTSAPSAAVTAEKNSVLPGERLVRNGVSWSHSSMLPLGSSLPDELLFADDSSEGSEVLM
The assay is described as follows: LanthaScreen Eu kinase binding assay, Mer. As to conditions: Tracer 236. For orientation: In TR-FRET formats the signal depends on donor and acceptor labels being close together.

The target of assay [2] is T2, Met (Homo sapiens, UniProt P08581).
T2 construct: purchased Life Technologies
The assay is described as follows: LanthaScreen Eu kinase binding assay, Met. The following applies: Tracer 236, read-out: cMet kinase binding activity (Kd).

In assay [3] the target is T3, Axl (Homo sapiens, UniProt P30530).
T3 construct: purchased Life Technologies
T3 sequence (P30530 26-894): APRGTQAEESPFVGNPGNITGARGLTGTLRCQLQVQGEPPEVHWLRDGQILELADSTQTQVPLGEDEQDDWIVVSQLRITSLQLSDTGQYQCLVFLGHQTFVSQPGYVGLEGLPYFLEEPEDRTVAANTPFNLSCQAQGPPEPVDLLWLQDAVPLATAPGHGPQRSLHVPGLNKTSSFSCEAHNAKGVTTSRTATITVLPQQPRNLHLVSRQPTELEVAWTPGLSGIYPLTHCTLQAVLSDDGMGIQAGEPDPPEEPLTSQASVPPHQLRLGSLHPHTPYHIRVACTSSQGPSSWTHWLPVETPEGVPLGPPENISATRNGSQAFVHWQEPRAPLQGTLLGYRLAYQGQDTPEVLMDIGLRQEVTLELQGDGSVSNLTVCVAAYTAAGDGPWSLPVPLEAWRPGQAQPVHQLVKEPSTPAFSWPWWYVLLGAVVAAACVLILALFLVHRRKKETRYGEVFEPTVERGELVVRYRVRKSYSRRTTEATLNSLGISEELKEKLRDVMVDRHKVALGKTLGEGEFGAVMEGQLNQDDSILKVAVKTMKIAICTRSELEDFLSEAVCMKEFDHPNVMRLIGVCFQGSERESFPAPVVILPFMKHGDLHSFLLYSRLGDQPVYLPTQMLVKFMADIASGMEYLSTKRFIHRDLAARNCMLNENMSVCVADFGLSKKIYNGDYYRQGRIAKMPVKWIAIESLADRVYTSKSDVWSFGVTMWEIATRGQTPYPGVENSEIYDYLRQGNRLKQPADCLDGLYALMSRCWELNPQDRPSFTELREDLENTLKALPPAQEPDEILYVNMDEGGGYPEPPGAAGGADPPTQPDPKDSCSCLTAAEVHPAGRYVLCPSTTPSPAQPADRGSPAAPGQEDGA
As to the kind of experiment: LanthaScreen Eu kinase binding assay, Axl. As to conditions: Tracer 236.

The Kd is the constant that tells how readily two partners part at equilibrium.

T2 sequence (P08581 25-1390): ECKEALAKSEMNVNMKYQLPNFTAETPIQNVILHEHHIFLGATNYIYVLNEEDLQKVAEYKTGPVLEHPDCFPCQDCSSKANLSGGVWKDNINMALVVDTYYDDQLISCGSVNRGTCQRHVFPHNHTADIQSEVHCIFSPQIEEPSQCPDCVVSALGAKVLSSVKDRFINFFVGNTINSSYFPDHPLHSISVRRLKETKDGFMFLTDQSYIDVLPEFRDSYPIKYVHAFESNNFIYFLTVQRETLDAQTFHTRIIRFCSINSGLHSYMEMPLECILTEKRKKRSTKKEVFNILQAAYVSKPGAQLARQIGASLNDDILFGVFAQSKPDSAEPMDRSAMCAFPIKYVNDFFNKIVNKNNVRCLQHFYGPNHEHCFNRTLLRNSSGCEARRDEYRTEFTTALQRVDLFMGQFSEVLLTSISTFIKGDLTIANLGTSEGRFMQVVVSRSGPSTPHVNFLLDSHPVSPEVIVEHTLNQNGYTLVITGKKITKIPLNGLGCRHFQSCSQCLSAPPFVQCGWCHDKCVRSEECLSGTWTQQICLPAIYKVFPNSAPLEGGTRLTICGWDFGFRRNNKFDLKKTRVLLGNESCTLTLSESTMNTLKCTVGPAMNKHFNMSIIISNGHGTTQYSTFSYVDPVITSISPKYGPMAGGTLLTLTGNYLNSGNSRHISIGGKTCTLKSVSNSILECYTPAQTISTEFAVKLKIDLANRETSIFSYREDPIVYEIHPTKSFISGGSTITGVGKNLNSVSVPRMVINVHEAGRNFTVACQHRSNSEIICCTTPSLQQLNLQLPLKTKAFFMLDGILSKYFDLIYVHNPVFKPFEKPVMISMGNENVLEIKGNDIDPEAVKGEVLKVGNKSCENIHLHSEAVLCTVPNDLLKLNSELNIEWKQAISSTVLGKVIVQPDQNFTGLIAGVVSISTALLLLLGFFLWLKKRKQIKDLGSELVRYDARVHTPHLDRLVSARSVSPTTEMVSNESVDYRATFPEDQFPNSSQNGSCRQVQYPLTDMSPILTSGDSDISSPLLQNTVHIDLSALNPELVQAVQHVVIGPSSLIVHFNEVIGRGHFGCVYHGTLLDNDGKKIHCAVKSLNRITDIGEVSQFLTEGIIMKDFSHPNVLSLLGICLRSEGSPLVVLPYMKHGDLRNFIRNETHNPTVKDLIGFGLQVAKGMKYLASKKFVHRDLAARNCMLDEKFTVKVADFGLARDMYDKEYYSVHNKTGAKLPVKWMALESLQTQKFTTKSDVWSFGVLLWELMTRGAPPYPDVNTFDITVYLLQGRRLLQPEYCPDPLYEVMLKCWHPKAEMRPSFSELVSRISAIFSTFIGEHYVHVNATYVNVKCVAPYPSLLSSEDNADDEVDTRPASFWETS

With `CCOc1cn(-c2cnccc2C(C)=O)nc1C(=O)Nc1ccc(Oc2ccnc3cc(OC)c(OC)cc23)cn1` [Compound 182], the Kd in assay [1], in assay [2] and in assay [3] was under 0.1 µM each time.
For `CCOc1cn(-c2cnccc2C(C)(C)O)nc1C(=O)Nc1ccc(Oc2ccnc3cc(OC)c(OC)cc23)c(F)c1` [Compound 195], the Kd in assay [1], in assay [2] and in assay [3] was under 0.1 µM each time.
For `CCOc1cn(-c2ccc(Cl)c(C(=O)N(C)C)c2)nc1C(=O)Nc1ccc(Oc2ccnc3cc(OC)c(OC)cc23)cn1` [Compound 129], the Kd in assay [1], in assay [2] and in assay [3] was under 0.1 µM in each case.
As for `CCOc1cn(-c2cccnc2)nc1C(=O)Nc1ccc(Oc2ccnc3cc(OC(C)C)c(OC)cc23)cn1` [Compound 208], the Kd in assay [1], in assay [2] and in assay [3] was under 0.1 µM in each case.
In the case of `CCOc1cn(-c2ccc(F)c(CO)c2)nc1C(=O)Nc1ccc(Oc2ccnc3cc(OC)c(OC)cc23)cn1` [Compound 128], the Kd in assay [1], in assay [2] and in assay [3] was under 0.1 µM in each case.
`CCOc1cn(-c2cnccc2C(F)(F)F)nc1C(=O)Nc1ccc(Oc2ccnc3cc(OC)c(OC)cc23)cc1F` [Compound 196]: the Kd in assay [1], in assay [2] and in assay [3] was under 0.1 µM in each case.
Turning to `CCOc1cn(-c2ccc(C(F)(F)F)cc2C)nc1C(=O)Nc1ccc(Oc2ccnc3cc(OC)c(OC)cc23)cn1` [Compound 99], the Kd in assay [1] was under 0.1 µM; in assay [2], at least 1 µM; in assay [3], under 0.1 µM.
With `CCOc1cn(-c2cnccc2Cl)nc1C(=O)Nc1ccc(Oc2ccnc3cc(OC)c(OC)cc23)c(F)c1` [Compound 193], the Kd in assay [1], in assay [2] and in assay [3] was under 0.1 µM each time.
As for `CCOc1cn(-c2cnccc2C(F)(F)F)nc1C(=O)Nc1ccc(Oc2ccnc3cc(OC)c(OC)cc23)cn1` [Compound 170], the dissociation constant Kd in assay [1], in assay [2] and in assay [3] was under 0.1 µM each time.
`CCOc1cn(-c2ccc(OC(F)(F)F)cc2F)nc1C(=O)Nc1ccc(Oc2ccnc3cc(OC)c(OC)cc23)cn1` [Compound 120]: the Kd in assay [1] was under 0.1 µM; in assay [2], 0.1 to 1 µM; in assay [3], under 0.1 µM.
Take `CCOc1cn(-c2c(C)ccnc2C)nc1C(=O)Nc1ccc(Oc2ccnc3cc(OC)c(OC)cc23)c(F)c1` [Compound 188]: the Kd in assay [1], in assay [2] and in assay [3] was under 0.1 µM throughout.
As for `CCOc1cnn(-c2ccc(Cl)c(CN(C)C)c2)c1C(=O)Nc1ccc(Oc2ccnc3cc(OC)c(OC)cc23)cn1` [Compound 130], the Kd in assay [1], in assay [2] and in assay [3] was under 0.1 µM throughout.
Turning to `CCOc1cn(-c2cnccc2C(C)(C)O)nc1C(=O)Nc1ccc(Oc2ccnc3cc(OC)c(OC)cc23)cc1F` [Compound 197], the Kd in assay [1], in assay [2] and in assay [3] was under 0.1 µM each time.
On to `CCOc1cn(-c2nccnc2C(C)(C)O)nc1C(=O)Nc1ccc(Oc2ccnc3cc(OC)c(OC)cc23)cn1` [Compound 200], for which the Kd in assay [1], in assay [2] and in assay [3] was under 0.1 µM each time.
For `CCOc1cn(-c2cnc(Cl)cn2)nc1C(=O)Nc1ccc(Oc2ccnc3cc(OC)c(OC)cc23)cn1` [Compound 169], the dissociation constant (Kd) in assay [1] is under 0.1 µM; in assay [2], at least 1 µM; in assay [3] it was under 0.1 µM.
`CCOc1cn(-c2ccc(OC(F)(F)F)cc2Cl)nc1C(=O)Nc1ccc(Oc2ccnc3cc(OC)c(OC)cc23)cc1F` [Compound 192]: the Kd in assay [1], in assay [2] and in assay [3] was under 0.1 µM each time.
As for `CCOc1cn(-c2c(C)cc(C)cc2C)nc1C(=O)Nc1ccc(Oc2ccnc3cc(OC)c(OC)cc23)cn1` [Compound 117], the Kd in assay [1], in assay [2] and in assay [3] was under 0.1 µM in each case.
For the compound `CCOc1cn(-c2cncnc2C)nc1C(=O)Nc1ccc(Oc2ccnc3cc(OC)c(OC)cc23)cn1` [Compound 149], the Kd in assay [1], in assay [2] and in assay [3] was under 0.1 µM each time.
